Columns and labels:
[1] = cited from earlier work
[2] = oral administration, fasted state; cited from earlier work
[3] = Stability of Ramipril on exposure to stomach juices / acid pH; assay type: physicochemical

Row | Stability on exposure to stomach juices (acid pH) [3] | Structure (SMILES) | Absorption in the presence of food [1] | Time to peak plasma concentrations [2]
1 | – | CC(=O)Oc1ccccc1C(=O)O [aspirin] | delayed | –
2 | breaks down | CCOC(=O)[C@H](CCc1ccccc1)N[C@@H](C)C(=O)N1[C@H](C(=O)O)C[C@@H]2CCC[C@@H]21 [Ramipril, (2S,3aS,6aS)-1[(S)-N-[(S)-1-carboxy-3-phenylpropyl]alanyl]octahydrocyclopenta[b]pyrrole-2-carboxylic acid, 1-ethyl ester] | – | one
